# In the kinase profiling compilation of Christmann-Franck et al. (2016):
# What was measured:
# Assay in all cases: KINOMEscan competition binding
# Details in all cases: compound 1.0 µM
# [1] = target: MAP4K1 (human) (UniProt Q92918)
# [2] = test system: PIK3CA (human), P42336 [I800L]
# [3] = target: CDK2 (human) (UniProt P24941)
# [4] = target: MET (human) (UniProt P08581)
# [5] = target: CRK2 (P.falciparum) (UniProt P61075)
# [6] = test system: EGFR (human), P00533 [752-759 del]
# [7] = target: STK16 (human) (UniProt O75716)
# [8] = target: EPHA6 (human) (UniProt Q9UF33)
# [9] = target: DDR1 (human) (UniProt Q08345)
# [10] = target: STK36 (human) (UniProt Q9NRP7)
# [11] = target: LYN (human) (UniProt P07948)
# [12] = test system: RET (human), P07949 [V804L]
# [13] = test system: PIK3CA (human), P42336 [C420R]
# [14] = target: PHKG1 (human) (UniProt Q16816)
# [15] = target: CAMKK1 (human) (UniProt Q8N5S9)
# [16] = target: JAK2 JH1 catalytic (human) (UniProt O60674)
# [17] = target: CDK3 (human) (UniProt Q00526)
# [18] = target: MAP3K15 (human) (UniProt Q6ZN16)
# [19] = target: NEK4 (human) (UniProt P51957)
# [20] = test system: KIT (human), P10721 [L576P]
# [21] = test system: KIT (human), P10721 [V559D]
# [22] = target: LATS1 (human) (UniProt O95835)
# [23] = target: NUAK2 (human) (UniProt Q9H093)
# [24] = target: TRPM6 (human) (UniProt Q9BX84)
# [25] = target: GRK7 (human) (UniProt Q8WTQ7)
# [26] = target: PRKD2 (human) (UniProt Q9BZL6)
# [27] = target: IKBKB (human) (UniProt O14920)
# [28] = target: PRKX (human) (UniProt P51817)
# [29] = target: CASK (human) (UniProt O14936)
# [30] = target: MARK4 (human) (UniProt Q96L34)
# [31] = target: PIM3 (human) (UniProt Q86V86)
# [32] = target: CDK18 (human) (UniProt Q07002)
# [33] = target: FER (human) (UniProt P16591)
# [34] = target: PLK1 (human) (UniProt P53350)
# [35] = target: SLK (human) (UniProt Q9H2G2)
# [36] = target: PRKACB (human) (UniProt P22694)
# [37] = target: BLK (human) (UniProt P51451)
# [38] = target: PIP4K2C (human) (UniProt Q8TBX8)
# [39] = target: SRPK1 (human) (UniProt Q96SB4)
# [40] = target: RIPK4 (human) (UniProt P57078)
# [41] = target: EIF2AK1 (human) (UniProt Q9BQI3)
# [42] = target: AXL (human) (UniProt P30530)
# [43] = target: MAP4K4 (human) (UniProt O95819)
# Chain of STK36 (human) (Q9NRP7 whole entry, looked up): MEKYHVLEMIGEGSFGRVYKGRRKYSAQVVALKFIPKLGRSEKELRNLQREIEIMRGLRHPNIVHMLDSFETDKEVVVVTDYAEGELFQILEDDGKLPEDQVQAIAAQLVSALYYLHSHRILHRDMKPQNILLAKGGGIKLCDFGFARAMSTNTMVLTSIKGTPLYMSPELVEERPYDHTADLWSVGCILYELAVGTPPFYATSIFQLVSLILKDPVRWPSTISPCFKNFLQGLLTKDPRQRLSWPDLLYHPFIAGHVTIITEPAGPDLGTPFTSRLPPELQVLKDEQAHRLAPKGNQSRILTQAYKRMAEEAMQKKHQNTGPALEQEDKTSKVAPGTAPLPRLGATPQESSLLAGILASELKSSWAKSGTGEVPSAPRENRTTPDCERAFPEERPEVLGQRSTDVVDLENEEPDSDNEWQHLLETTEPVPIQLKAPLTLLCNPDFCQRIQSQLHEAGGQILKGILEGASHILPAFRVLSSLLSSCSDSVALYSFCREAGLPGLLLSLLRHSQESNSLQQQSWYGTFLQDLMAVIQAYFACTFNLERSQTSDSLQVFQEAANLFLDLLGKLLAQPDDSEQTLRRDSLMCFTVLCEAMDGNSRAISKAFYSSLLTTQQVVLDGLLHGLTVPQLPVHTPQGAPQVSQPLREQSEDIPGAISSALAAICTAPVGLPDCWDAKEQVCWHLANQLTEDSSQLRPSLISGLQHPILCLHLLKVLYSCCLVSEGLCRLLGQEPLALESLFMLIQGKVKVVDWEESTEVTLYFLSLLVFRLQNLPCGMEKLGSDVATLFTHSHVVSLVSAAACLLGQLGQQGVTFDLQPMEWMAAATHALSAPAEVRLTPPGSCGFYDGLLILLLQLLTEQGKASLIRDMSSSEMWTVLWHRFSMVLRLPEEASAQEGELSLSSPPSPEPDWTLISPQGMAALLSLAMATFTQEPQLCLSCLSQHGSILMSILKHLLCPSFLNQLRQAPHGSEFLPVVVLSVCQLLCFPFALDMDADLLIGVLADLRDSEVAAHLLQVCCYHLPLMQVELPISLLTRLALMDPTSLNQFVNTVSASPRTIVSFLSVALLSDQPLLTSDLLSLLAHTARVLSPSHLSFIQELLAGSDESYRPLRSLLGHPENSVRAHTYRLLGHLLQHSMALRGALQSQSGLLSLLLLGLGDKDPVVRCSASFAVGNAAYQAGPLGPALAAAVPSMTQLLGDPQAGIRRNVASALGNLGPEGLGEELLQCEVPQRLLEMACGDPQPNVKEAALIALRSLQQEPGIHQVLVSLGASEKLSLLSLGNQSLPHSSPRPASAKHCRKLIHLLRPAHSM
# Chain of DDR1 (human) (Q08345 whole entry, looked up): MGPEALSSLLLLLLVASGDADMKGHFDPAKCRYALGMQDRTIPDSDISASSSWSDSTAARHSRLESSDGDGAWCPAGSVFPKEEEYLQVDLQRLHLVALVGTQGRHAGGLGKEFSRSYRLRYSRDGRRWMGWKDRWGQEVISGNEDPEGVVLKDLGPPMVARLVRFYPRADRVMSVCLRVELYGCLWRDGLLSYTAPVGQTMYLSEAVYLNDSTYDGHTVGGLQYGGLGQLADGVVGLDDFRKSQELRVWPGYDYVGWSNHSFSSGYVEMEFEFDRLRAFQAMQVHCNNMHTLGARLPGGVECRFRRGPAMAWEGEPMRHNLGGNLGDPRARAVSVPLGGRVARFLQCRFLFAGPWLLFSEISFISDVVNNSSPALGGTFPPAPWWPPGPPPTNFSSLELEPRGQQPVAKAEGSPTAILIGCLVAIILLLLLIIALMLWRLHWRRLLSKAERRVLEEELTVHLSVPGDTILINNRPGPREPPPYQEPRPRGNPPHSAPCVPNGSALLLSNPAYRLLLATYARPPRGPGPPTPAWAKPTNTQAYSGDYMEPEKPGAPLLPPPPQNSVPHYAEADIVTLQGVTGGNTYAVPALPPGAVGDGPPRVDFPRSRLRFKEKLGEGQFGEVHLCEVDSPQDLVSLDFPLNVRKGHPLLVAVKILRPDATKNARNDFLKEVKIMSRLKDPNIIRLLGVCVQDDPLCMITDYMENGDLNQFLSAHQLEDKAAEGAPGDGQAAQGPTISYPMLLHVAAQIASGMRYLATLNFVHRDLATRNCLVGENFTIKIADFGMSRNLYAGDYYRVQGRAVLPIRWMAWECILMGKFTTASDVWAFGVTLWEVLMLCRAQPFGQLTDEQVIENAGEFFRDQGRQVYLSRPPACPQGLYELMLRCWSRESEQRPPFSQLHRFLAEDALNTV
# Chain of MARK4 (human) (Q96L34 whole entry, looked up): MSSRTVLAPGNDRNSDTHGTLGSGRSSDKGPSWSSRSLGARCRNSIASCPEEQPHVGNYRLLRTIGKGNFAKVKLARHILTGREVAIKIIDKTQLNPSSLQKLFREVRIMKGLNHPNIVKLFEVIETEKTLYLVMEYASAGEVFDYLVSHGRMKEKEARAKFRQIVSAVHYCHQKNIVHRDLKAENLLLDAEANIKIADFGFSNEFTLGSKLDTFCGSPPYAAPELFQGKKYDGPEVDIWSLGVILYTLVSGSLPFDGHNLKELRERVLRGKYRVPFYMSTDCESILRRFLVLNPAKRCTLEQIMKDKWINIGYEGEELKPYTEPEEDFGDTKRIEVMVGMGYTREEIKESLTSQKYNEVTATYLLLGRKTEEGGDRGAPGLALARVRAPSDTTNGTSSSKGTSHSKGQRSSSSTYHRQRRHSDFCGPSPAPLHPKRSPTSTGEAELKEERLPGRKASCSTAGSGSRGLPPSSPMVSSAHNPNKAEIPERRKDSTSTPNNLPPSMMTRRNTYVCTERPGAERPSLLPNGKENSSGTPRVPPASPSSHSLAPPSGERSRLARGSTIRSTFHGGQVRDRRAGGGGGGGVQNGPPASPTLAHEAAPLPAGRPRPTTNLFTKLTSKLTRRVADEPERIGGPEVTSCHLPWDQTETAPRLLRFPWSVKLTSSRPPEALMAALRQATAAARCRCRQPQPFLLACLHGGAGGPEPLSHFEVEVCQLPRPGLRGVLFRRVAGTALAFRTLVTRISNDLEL
# Chain of TRPM6 (human) (Q9BX84 whole entry, looked up): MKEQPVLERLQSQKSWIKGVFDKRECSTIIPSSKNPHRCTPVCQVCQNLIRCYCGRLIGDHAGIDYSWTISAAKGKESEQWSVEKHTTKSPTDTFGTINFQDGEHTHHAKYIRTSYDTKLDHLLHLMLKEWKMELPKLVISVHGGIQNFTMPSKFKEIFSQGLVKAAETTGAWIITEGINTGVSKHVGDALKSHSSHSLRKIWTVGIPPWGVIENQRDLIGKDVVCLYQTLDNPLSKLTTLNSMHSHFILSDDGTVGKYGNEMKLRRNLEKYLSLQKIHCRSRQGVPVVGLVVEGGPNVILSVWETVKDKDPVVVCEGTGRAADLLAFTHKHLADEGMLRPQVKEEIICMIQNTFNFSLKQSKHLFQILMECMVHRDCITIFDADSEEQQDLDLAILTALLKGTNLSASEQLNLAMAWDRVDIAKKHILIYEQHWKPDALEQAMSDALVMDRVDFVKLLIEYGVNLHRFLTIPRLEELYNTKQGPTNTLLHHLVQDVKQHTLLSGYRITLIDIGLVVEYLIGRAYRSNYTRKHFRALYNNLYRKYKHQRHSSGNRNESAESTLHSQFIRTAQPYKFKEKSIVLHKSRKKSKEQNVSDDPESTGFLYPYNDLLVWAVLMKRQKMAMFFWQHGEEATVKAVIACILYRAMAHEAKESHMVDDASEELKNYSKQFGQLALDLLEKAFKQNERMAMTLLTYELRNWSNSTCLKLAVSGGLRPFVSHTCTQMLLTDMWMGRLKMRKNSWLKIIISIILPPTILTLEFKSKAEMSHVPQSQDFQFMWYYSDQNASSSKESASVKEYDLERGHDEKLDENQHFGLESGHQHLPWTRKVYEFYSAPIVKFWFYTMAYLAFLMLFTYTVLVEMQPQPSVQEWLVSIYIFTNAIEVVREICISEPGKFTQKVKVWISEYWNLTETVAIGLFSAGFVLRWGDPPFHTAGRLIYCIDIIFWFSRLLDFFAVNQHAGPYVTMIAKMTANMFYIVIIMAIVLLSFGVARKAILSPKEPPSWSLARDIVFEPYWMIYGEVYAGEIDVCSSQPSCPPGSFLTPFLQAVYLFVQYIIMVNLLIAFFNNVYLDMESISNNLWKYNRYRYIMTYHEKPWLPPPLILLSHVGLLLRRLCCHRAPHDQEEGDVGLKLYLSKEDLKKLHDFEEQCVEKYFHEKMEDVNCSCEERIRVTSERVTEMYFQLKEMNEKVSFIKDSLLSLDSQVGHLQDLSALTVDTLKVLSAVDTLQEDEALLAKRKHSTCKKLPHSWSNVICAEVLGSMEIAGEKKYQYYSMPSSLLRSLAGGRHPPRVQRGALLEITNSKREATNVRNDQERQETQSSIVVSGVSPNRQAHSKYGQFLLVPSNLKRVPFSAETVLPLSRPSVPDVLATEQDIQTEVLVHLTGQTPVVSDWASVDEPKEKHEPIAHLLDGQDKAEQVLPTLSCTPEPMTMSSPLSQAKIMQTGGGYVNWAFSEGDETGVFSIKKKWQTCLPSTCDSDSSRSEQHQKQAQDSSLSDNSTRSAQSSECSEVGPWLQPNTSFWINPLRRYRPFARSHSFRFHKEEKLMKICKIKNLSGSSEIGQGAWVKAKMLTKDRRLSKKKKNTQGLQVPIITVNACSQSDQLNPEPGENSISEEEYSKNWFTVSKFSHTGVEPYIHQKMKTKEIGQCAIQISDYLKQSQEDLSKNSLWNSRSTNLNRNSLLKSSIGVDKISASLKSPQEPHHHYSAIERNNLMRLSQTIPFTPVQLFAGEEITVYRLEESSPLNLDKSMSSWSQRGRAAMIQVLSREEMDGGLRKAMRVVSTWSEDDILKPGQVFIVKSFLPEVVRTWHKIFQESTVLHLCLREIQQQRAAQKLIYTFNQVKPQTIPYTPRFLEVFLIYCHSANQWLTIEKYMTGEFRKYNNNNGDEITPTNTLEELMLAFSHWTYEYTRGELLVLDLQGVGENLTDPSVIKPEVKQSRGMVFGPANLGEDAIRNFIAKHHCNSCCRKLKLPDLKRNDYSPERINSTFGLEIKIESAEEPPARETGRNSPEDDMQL
smiles,measurement,setting,value
CN(C)C/C=C/C(=O)Nc1cccc(C(=O)Nc2ccc(Nc3nccc(-c4c(-c5ccccc5)nn5ccccc45)n3)cc2)c1,"kinase still bound, per cent of control",[1],69%
same,"kinase still bound, per cent of control",[2],77%
same,"kinase still bound, per cent of control",[3],100%
same,"kinase still bound, per cent of control",[4],55%
same,"kinase still bound, per cent of control",[5],100%
same,"kinase still bound, per cent of control",[6],7.8%
same,"kinase still bound, per cent of control",[7],37%
same,"kinase still bound, per cent of control",[8],32%
same,"kinase still bound, per cent of control",[9],0%
same,"kinase still bound, per cent of control",[10],2.2%
same,"kinase still bound, per cent of control",[11],58%
same,"kinase still bound, per cent of control",[12],89%
same,"kinase still bound, per cent of control",[13],100%
same,"kinase still bound, per cent of control",[14],100%
same,"kinase still bound, per cent of control",[15],100%
same,"kinase still bound, per cent of control",[16],100%
same,"kinase still bound, per cent of control",[17],100%
same,"kinase still bound, per cent of control",[18],47%
same,"kinase still bound, per cent of control",[19],100%
same,"kinase still bound, per cent of control",[20],3%
same,"kinase still bound, per cent of control",[21],0.6%
same,"kinase still bound, per cent of control",[22],95%
same,"kinase still bound, per cent of control",[23],89%
same,"kinase still bound, per cent of control",[24],100%
same,"kinase still bound, per cent of control",[25],86%
same,"kinase still bound, per cent of control",[26],15%
same,"kinase still bound, per cent of control",[27],84%
same,"kinase still bound, per cent of control",[28],94%
same,"kinase still bound, per cent of control",[29],52%
same,"kinase still bound, per cent of control",[30],100%
same,"kinase still bound, per cent of control",[31],94%
same,"kinase still bound, per cent of control",[32],95%
same,"kinase still bound, per cent of control",[33],87%
same,"kinase still bound, per cent of control",[34],100%
same,"kinase still bound, per cent of control",[35],18%
same,"kinase still bound, per cent of control",[36],83%
same,"kinase still bound, per cent of control",[37],5.9%
same,"kinase still bound, per cent of control",[38],86%
same,"kinase still bound, per cent of control",[39],90%
same,"kinase still bound, per cent of control",[40],100%
same,"kinase still bound, per cent of control",[41],76%
same,"kinase still bound, per cent of control",[42],58%
same,"kinase still bound, per cent of control",[43],9.8%
CN(C)C/C=C/C(=O)Nc1cccc(C(=O)Nc2ccc(Nc3nccc(/C(C#N)=C4\Nc5ccccc5S4)n3)cc2)c1,"kinase still bound, per cent of control",[1],100%
same,"kinase still bound, per cent of control",[2],100%
same,"kinase still bound, per cent of control",[3],100%
same,"kinase still bound, per cent of control",[4],92%
same,"kinase still bound, per cent of control",[5],100%
same,"kinase still bound, per cent of control",[6],95%
same,"kinase still bound, per cent of control",[7],100%
same,"kinase still bound, per cent of control",[8],100%
same,"kinase still bound, per cent of control",[9],59%
same,"kinase still bound, per cent of control",[10],95%
same,"kinase still bound, per cent of control",[11],94%
same,"kinase still bound, per cent of control",[12],100%
same,"kinase still bound, per cent of control",[13],100%
same,"kinase still bound, per cent of control",[14],94%
same,"kinase still bound, per cent of control",[15],100%
same,"kinase still bound, per cent of control",[16],100%
same,"kinase still bound, per cent of control",[17],100%
same,"kinase still bound, per cent of control",[18],100%
same,"kinase still bound, per cent of control",[19],100%
same,"kinase still bound, per cent of control",[20],100%
same,"kinase still bound, per cent of control",[21],11%
same,"kinase still bound, per cent of control",[22],89%
same,"kinase still bound, per cent of control",[23],100%
same,"kinase still bound, per cent of control",[24],100%
same,"kinase still bound, per cent of control",[25],81%
same,"kinase still bound, per cent of control",[26],100%
same,"kinase still bound, per cent of control",[27],87%
same,"kinase still bound, per cent of control",[28],82%
same,"kinase still bound, per cent of control",[29],100%
same,"kinase still bound, per cent of control",[30],100%
same,"kinase still bound, per cent of control",[31],100%
same,"kinase still bound, per cent of control",[32],100%
same,"kinase still bound, per cent of control",[33],82%
same,"kinase still bound, per cent of control",[34],96%
same,"kinase still bound, per cent of control",[35],8.6%
same,"kinase still bound, per cent of control",[36],100%
same,"kinase still bound, per cent of control",[37],100%
same,"kinase still bound, per cent of control",[38],35%
same,"kinase still bound, per cent of control",[39],91%
same,"kinase still bound, per cent of control",[40],100%
same,"kinase still bound, per cent of control",[41],100%
same,"kinase still bound, per cent of control",[42],100%
same,"kinase still bound, per cent of control",[43],100%
Cc1cc(NC(=O)c2cccc(NC(=O)/C=C/CN(C)C)c2)ccc1Nc1nccc(-c2cccnc2)n1,"kinase still bound, per cent of control",[1],89%
same,"kinase still bound, per cent of control",[2],88%
same,"kinase still bound, per cent of control",[3],77%
same,"kinase still bound, per cent of control",[4],100%
same,"kinase still bound, per cent of control",[5],90%
same,"kinase still bound, per cent of control",[6],79%
same,"kinase still bound, per cent of control",[7],61%
same,"kinase still bound, per cent of control",[8],100%
same,"kinase still bound, per cent of control",[9],93%
same,"kinase still bound, per cent of control",[10],91%
same,"kinase still bound, per cent of control",[11],87%
same,"kinase still bound, per cent of control",[12],100%
same,"kinase still bound, per cent of control",[13],99%
same,"kinase still bound, per cent of control",[14],87%
same,"kinase still bound, per cent of control",[15],100%
same,"kinase still bound, per cent of control",[16],100%
same,"kinase still bound, per cent of control",[17],100%
same,"kinase still bound, per cent of control",[18],82%
same,"kinase still bound, per cent of control",[19],79%
same,"kinase still bound, per cent of control",[20],100%
same,"kinase still bound, per cent of control",[21],0.95%
same,"kinase still bound, per cent of control",[22],91%
same,"kinase still bound, per cent of control",[23],70%
same,"kinase still bound, per cent of control",[24],98%
same,"kinase still bound, per cent of control",[25],72%
same,"kinase still bound, per cent of control",[26],100%
same,"kinase still bound, per cent of control",[27],99%
same,"kinase still bound, per cent of control",[28],0%
same,"kinase still bound, per cent of control",[29],100%
same,"kinase still bound, per cent of control",[30],97%
same,"kinase still bound, per cent of control",[31],56%
same,"kinase still bound, per cent of control",[32],100%
same,"kinase still bound, per cent of control",[33],100%
same,"kinase still bound, per cent of control",[34],100%
same,"kinase still bound, per cent of control",[35],100%
same,"kinase still bound, per cent of control",[36],76%
same,"kinase still bound, per cent of control",[37],65%
same,"kinase still bound, per cent of control",[38],46%
same,"kinase still bound, per cent of control",[39],99%
same,"kinase still bound, per cent of control",[40],79%
same,"kinase still bound, per cent of control",[41],100%
same,"kinase still bound, per cent of control",[42],77%
same,"kinase still bound, per cent of control",[43],92%
